We go through six compounds from US8841482B2, “Method for synthesizing rare earth metal extractant” (Shin-Etsu Chemical Co., Ltd., priority 2010, dated 2014).

A short description of this series: extraction/separation performance test (solvent extraction of Pr/Nd, back extraction, ICP atomic emission). Type of series: physicochemical. As to conditions: aqueous Pr:Nd 1:1, 0.1 mol/L Pr+Nd, 20° C.

Description: The stoichiometric amount of the reaction product, D2EHDGAA in Example 1 or Comparative Example 1 was diluted with hexanol to form an organic solution having a D2EHDGAA concentration of 0.3 mol/L, which might become an organic phase.
A mixed rare earth metal aqueous solution was prepared by dissolving praseodymium chloride and neodymium chloride in water in a molar ratio Pr:Nd of 1:1 and a concentration of 0.1 mol/L of Pr+Nd to form an aqueous solution, which might become an aqueous phase. A separatory funnel was charged with 100 mL of the organic solution and 100 mL of the aqueous solution and shaken at 20° C. for about 20 minutes to effect extraction. After equilibrium was reached, the liquid was allowed to separate into organic and aqueous phases. A separatory funnel was charged with 100 mL of the thus separated organic phase and 100 mL of 5N hydrochloric acid and shaken at 20° C. for about 20 minutes whereby the rare earth element once extracted in the organic phase was back extracted in the hydrochloric acid aqueous solution. The concentrations of praseodymium and neodymium in the aqueous phase and the back-extracted hydrochloric acid aqueous solution were measured by an ICP atomic emission spectrometer ICP-7500 (Shimadzu Corp.).
The stoichiometric amount of the reaction product, D2EHDGAA in Example 5, 6 or Comparative Example 5, 6 was diluted with toluene to form an organic solution having a D2EHDGAA concentration of 0.3 mol/L, which might become an organic phase.

With `CCCCC(CC)CN(CC(CC)CCCC)C(=O)COCC(=O)O` (stereo not drawn) [Example 1, N,N-bis(2-ethylhexyl)-3-oxapentane-1,5-amic acid], for the setting “D2EHDGAA 0.3 mol/L in hexanol”, the Nd/Pr separation factor came out at 2.5 and the Phase separation result is “definite”.
For the compound `CCCCCCCCN(CCCCCCCC)C(=O)COCC(=O)O` [Example 2, N,N-dioctyl-3-oxapentane-1,5-amic acid], under “DODGAA 0.3 mol/L in hexanol”, the Nd/Pr separation factor came out at 2.5 and the Phase separation result is given as “definite”.
Consider `CCCCC(CC)CN(CC(CC)CCCC)C(=O)COCC(=O)O` (stereo not drawn) [Example 6, N,N-bis(2-ethylhexyl)-3-oxapentane-1,5-amic acid], for which, for the setting “D2EHDGAA 0.3 mol/L in toluene”, the Nd/Pr separation factor came to 2.5 and the Phase separation entry is given as “definite”.
Turning to `CCCCC(CC)CN(CC(CC)CCCC)C(=O)COCC(=O)O` (stereo not drawn) [Example 4, N,N-bis(2-ethylhexyl)-3-oxapentane-1,5-amic acid], where the note is “D2EHDGAA 0.3 mol/L in kerosene”, the Nd/Pr separation factor came out at 2.5 and the Phase separation entry is reported as “definite”.
For the compound `CCCCC(CC)CN(CC(CC)CCCC)C(=O)COCC(=O)O` (stereo not drawn) [Example 3, N,N-bis(2-ethylhexyl)-3-oxapentane-1,5-amic acid], under “D2EHDGAA 0.3 mol/L in kerosene”, the Nd/Pr separation factor came to 2.5 and the Phase separation result was “definite”.
`CCCCC(CC)CN(CC(CC)CCCC)C(=O)COCC(=O)O` (stereo not drawn) [Example 5, N,N-bis(2-ethylhexyl)-3-oxapentane-1,5-amic acid]: where the note is “D2EHDGAA 0.3 mol/L in toluene”, the Nd/Pr separation factor is listed as 2.5 and the Phase separation entry is on record as “definite”.
